Results from patent publication US20220387366A1, “Compositions for Regulating Homeostasis of Cortisol and Improving Sleep Quality and Methods of Use and Production Thereof” (Unigen, Inc., priority 2021, published 2022).

How the values were obtained:
[1] = target: T1, MT2 receptor (Homo sapiens, UniProt P49286); test: Melatonin receptor MT2 binding assay, displacement of [125I]2-Iodomelatonin; settings: for inhibition at 0.5 µg/mL: 0.5 μg/mL; for inhibition at 2.5 µg/mL: 2.5 μg/mL
T1 construct: expressed in transfected cells; host or cells: CHO-K1 cells (membranes)
T1 sequence (P49286 1-362): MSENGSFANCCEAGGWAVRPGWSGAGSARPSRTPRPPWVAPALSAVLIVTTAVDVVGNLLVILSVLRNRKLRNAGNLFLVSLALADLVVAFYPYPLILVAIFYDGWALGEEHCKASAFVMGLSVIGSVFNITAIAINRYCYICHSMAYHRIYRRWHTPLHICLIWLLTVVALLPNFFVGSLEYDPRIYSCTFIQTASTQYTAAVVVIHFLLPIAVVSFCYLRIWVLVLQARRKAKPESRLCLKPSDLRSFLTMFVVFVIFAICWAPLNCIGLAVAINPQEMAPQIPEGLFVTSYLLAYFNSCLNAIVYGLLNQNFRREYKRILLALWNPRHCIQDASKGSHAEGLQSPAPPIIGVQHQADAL

[2] = target: T2, MT1 receptor (Homo sapiens, UniProt P48039); test: Melatonin receptor MT1 binding assay, displacement of [125I]2-Iodomelatonin
T2 construct: expressed in transfected cells; host or cells: CHO-K1 cells (membranes)
T2 sequence (P48039 whole entry): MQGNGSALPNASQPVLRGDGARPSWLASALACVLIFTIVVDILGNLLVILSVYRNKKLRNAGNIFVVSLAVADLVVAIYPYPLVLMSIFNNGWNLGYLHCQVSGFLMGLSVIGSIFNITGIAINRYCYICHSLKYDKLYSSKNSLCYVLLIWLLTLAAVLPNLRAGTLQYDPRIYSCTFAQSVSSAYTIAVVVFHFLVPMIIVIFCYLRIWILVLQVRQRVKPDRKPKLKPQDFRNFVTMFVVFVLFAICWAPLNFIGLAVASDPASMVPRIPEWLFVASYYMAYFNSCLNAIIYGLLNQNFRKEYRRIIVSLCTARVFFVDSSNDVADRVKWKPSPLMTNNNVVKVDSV
Protocol: Human recombinant melatonin receptors (MT1 and MT2) were expressed in CHO-K1 cells and resuspended in buffer. The membranes containing recombinant receptors were incubated with test compounds in combination with 0.05 nM [125I]2-lodomelatonin for 180 minutes at 25° C. Membranes were immobilized on filters before being washed and the [125I]2-Iodomelatonin was counted. Test compounds that bound to MT1 or MT2 in the same binding site as melatonin displaced [125I]2-lodomelatonin, reducing the count. […] 0.00021 μM Melatonin was used as a positive control to displace [125I]2-Iodomelatonin (Paul et al., 1999; Beresford et al., 1998).
All samples were dissolved in 1% DMSO.

[3] = concentration range from 8 ug/mL to 0.015625 μg/mL

## COc1cc(/C=C/C(=O)O)ccc1O [Ferulic acid]
[1]; isolated compounds
  inhibition at 0.5 µg/mL: 2.6%
  inhibition at 2.5 µg/mL: 1.6%

## COc1ccc2c(c1)OC(O[C@@H]1O[C@H](CO)[C@@H](O)[C@H](O)[C@H]1O)C(=O)N2 (stereo partly drawn) [MW357, 2-(β-D-Glucopyranosyloxy)-7-methoxy-2H-1,4-benzoxazin-3(4H)-one]
[1]; 0.015625 μg/mL
  inhibition at 0.015625 µg/mL: 4%
[1]; 0.03125 μg/mL
  inhibition at 0.03125 µg/mL: 2%
[1]; 0.0625 μg/mL
  inhibition at 0.0625 µg/mL: 1%
[1]; 0.125 μg/mL
  inhibition at 0.125 µg/mL: -6%
[1]; 0.25 μg/mL
  inhibition at 0.25 µg/mL: 5%
[1]
  inhibition at 0.5 µg/mL: 4%
[1]; 1 μg/mL
  inhibition at 1 µg/mL: 3%
[1]; 2 μg/mL
  inhibition at 2 µg/mL: 10%
[1]; 4 μg/mL
  inhibition at 4 µg/mL: 5%
[1]; 8 μg/mL
  inhibition at 8 µg/mL: 3%
[1]; [3]
  inhibition against MT2 receptor: Neither compound show any inhibition
[2]; 0.015625 μg/mL
  inhibition at 0.015625 µg/mL: 3%
[2]; 0.03125 μg/mL
  inhibition at 0.03125 µg/mL: 1%
[2]; 0.0625 μg/mL
  inhibition at 0.0625 µg/mL: -4%
[2]; 0.125 μg/mL
  inhibition at 0.125 µg/mL: -1%
[2]; 0.25 μg/mL
  inhibition at 0.25 µg/mL: 0%
[2]; 0.5 μg/mL
  inhibition at 0.5 µg/mL: -5%
[2]; 1 μg/mL
  inhibition at 1 µg/mL: -2%
[2]; 2 μg/mL
  inhibition at 2 µg/mL: -4%
[2]; 4 μg/mL
  inhibition at 4 µg/mL: -5%
[2]; 8 μg/mL
  inhibition at 8 µg/mL: 0%
[2]; [3]
  inhibition against MT1 receptor: Neither compound show any inhibition

## COc1ccc2nc(O)oc2c1 [6-MBOA, 6-methoxy-2-benzoxazolol, reference compound]
[1]; 0.815 μM
  inhibition at 0.815 µM: -12%
[1]; 1.63 μM
  inhibition at 1.63 µM: -4%
[1]; 3.26 μM
  inhibition at 3.26 µM: 8%
[1]; 6.52 μM
  inhibition at 6.52 µM: 11%
[1]; 13.04 μM
  inhibition at 13.04 µM: 15%
[1]; at the concentrations tested (0.815 to 13.04 μM)
  inhibition of 2-lodomelatonin binding to MT2: did not inhibit
[2]; 0.0032 μM
  inhibition at 0.0032 µM: 2%
[2]; 0.0064 μM
  inhibition at 0.0064 µM: 3%
[2]; 0.013 μM
  inhibition at 0.013 µM: 8%
[2]; 0.025 μM
  inhibition at 0.025 µM: 11%
[2]; 0.051 μM
  inhibition at 0.051 µM: 5%
[2]; 0.102 μM
  inhibition at 0.102 µM: 1%
[2]; 0.204 μM
  inhibition at 0.204 µM: 7%
[2]; 0.407 μM
  inhibition at 0.407 µM: 6%
[2]; 0.815 μM
  inhibition at 0.815 µM: 7%
[2]; 1.63 μM
  inhibition at 1.63 µM: 8%
[2]; at the concentrations tested (3.2 nM to 1.63 μM)
  inhibition of 2-lodomelatonin binding to MT1: did not inhibit

## O=C(O)/C=C/c1ccc(O)cc1 [p-coumaric acid]
[1]; isolated compounds
  inhibition at 0.5 µg/mL: 0.5%
  inhibition at 2.5 µg/mL: 6.7%

## COc1ccc2c(c1)OC(O)C(=O)N2 (stereo not drawn) [HMBOA, 2-Hydroxy-7-methoxy-2H-1,4-benzoxazin-3(4H)-one]
[1]; isolated compounds
  inhibition at 0.5 µg/mL: 3.9%
  inhibition at 2.5 µg/mL: 28%
